{
  "source": "patent US11401264B2",
  "about": "“Heterocyclic compound” (Orizuru Therapeutics, Inc., priority 2018, dated 2022)",
  "test_system": "cardiomyocytes (embryoid bodies) from double knock-in human iPS cell lines (mCherry at TNNI3 locus)",
  "test": "Experimental Example 3: mCherry expression in TNNI1+ cells by flow cytometry, Example 8 with Compound A",
  "format": "cell-based",
  "conditions": "DMSO control 10.2",
  "description": "For detection of cardiomyocyte maturation, double knock-in human iPS cell lines, in which reporter protein sequences, EmGFP (Sequence Number 1) and mCherry (Sequence Number 2) were inserted into gene loci for TNNI1 and TNNI3, respectively, were prepared (the human iPS cells were prepared from episomal vector (loaded gene; OCT3/4, KLF4, SOX2, L-MYC, LIN28, mouse p53DD) using PBMC (LP_167, Sample ID: 20130318) purchased from CTL (reference literature; Okita K, et al. Stem Cells. 2012 Nov. 29. doi: 10.1002/stem.1293)).\nThe maintenance culture of the above-mentioned reporter iPS cell lines was carried out by a conventional method (Okita K, et al. Stem Cells. 2012 Nov. 29. doi: 10.1002/stem.1293).\nFor differentiation induction into cardiomyocytes, the reporter iPS cell lines were treated with 0.5×TrypLE select (Life Technologies, diluted in 1/2 with 0.5 mM EDTA/PBS) for 4 to 5 minutes, and the cells were exfoliated using a cell scraper (IWAKI), and then dissociated into the single cell by pipetting. […]",
  "data": [
    {"smiles": "O=C1c2ccc(N3CCOCC3)cc2CN1c1ccc2[nH]c(-c3ccc(Br)cc3)nc2c1", "note": "[Example 8, 2-(2-(4-bromophenyl)-1H-benzimidazol-5-yl)-5-(morpholin-4-yl)isoindolin-1-one]", "values": [
      {"measurement": "mCherry+ (%)", "setting": "Example 8 3 μM 8-9th days, then compound A 40 nM 10-15th days", "result": 64.3, "unit": "%"},
      {"measurement": "mCherry+ (%)", "setting": "Example 8 3 μM 8-9 days, then Example 8 3 μM + Compound A 40 nM 10-15th days", "result": 85.1, "unit": "%"}
    ]}
  ]
}
